Tests used:
Rho kinase 1 (ROCK1) = Rho kinase 1 (ROCK1) (Homo sapiens, UniProt Q13464); assay: In vitro Rho kinase inhibitory activity assay (ADP-Glo), ROCK1; assay type: biochemical; conditions: 10 μM ATP, 25° C., Ki by Cheng-Prusoff
Protocol: (§1) The effectiveness of compounds of the present invention to inhibit Rho kinase activity can be determined in a 10 μl assay containing 40 mM Tris pH7.5, 20 mM MgCl2 0.1 mg/ml BSA, 50 μM DTT and 2.5 μM peptide substrate (Myelin Basic Protein) using an ADP-Glo kit (Promega). Compounds were dissolved in DMSO such that the final concentration of DMSO was 1% in the assay. All reactions/incubations are performed at 25° C. Compound (2 ul) and either Rho kinase 1 or 2 (4 μl) were mixed and incubated for 30 mins. Reactions were initiated by addition of ATP (4 μl) such that the final concentration of ATP in the assay was 10 μM. After a 1 hour incubation 10 μl of ADP-Glo Reagent was added and after a further 45 minute incubation 20 ul of Kinase Detection Buffer was added and the mixture incubated for a further 30 minutes. The luminescent signal was measured on a luminometer. […] Compounds were tested in dose-response format and the inhibition of kinase activity was calculated at each concentration of compound. To determine the IC50 (concentration of compound required to inhibit 50% of the enzyme activity) data were fit to a plot of % inhibition vs Log10 compound concentration using a sigmoidal fit with a variable slope and fixing the maximum to 100% and the minimum to 0%. To determine the Ki values the Cheng-Prusoff equation was utilized (Ki=IC50/(1+[S]/Km)

Rho kinase 2 (ROCK2) = Rho kinase 2 (ROCK2) (Homo sapiens, UniProt O75116); assay: In vitro Rho kinase inhibitory activity assay (ADP-Glo), ROCK2; assay type: biochemical; conditions: 10 μM ATP, 25° C., Ki by Cheng-Prusoff
Sequence of Rho kinase 2 (ROCK2) (O75116 whole entry): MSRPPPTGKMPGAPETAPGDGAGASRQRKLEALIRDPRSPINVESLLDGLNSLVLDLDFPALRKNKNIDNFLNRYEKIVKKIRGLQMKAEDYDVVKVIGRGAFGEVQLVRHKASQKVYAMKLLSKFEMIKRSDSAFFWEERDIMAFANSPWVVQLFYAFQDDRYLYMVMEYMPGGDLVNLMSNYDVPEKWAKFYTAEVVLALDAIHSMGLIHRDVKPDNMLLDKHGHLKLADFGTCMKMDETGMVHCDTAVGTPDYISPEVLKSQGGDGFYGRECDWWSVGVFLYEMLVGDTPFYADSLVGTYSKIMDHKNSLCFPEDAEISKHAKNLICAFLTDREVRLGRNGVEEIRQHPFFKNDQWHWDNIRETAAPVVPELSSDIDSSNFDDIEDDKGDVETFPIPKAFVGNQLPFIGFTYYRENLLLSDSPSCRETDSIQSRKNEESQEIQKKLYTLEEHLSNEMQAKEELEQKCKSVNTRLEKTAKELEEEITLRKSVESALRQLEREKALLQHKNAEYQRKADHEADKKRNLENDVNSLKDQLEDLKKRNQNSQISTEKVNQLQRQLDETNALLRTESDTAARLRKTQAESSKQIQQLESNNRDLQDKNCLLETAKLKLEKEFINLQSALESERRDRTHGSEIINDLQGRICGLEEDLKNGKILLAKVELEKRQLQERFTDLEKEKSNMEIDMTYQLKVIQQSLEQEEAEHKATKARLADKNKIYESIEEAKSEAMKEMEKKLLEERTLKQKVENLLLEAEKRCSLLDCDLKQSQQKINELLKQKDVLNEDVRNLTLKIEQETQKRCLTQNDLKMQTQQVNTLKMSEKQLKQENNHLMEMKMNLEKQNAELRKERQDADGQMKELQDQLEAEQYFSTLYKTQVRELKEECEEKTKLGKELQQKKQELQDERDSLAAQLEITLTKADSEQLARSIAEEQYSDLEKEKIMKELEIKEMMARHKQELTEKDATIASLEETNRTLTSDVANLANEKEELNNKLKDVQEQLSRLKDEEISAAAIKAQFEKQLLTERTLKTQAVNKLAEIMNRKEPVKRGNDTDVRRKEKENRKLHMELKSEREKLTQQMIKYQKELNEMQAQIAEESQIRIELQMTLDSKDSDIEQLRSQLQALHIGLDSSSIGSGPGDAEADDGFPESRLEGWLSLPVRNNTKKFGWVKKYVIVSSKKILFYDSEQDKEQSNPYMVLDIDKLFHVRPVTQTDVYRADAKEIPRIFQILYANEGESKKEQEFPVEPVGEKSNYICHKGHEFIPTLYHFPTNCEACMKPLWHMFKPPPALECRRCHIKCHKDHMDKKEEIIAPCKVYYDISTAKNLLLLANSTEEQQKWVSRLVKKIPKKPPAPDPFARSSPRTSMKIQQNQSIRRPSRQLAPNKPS
Protocol: as §1

Sequence of Rho kinase 1 (ROCK1) (Q13464 whole entry): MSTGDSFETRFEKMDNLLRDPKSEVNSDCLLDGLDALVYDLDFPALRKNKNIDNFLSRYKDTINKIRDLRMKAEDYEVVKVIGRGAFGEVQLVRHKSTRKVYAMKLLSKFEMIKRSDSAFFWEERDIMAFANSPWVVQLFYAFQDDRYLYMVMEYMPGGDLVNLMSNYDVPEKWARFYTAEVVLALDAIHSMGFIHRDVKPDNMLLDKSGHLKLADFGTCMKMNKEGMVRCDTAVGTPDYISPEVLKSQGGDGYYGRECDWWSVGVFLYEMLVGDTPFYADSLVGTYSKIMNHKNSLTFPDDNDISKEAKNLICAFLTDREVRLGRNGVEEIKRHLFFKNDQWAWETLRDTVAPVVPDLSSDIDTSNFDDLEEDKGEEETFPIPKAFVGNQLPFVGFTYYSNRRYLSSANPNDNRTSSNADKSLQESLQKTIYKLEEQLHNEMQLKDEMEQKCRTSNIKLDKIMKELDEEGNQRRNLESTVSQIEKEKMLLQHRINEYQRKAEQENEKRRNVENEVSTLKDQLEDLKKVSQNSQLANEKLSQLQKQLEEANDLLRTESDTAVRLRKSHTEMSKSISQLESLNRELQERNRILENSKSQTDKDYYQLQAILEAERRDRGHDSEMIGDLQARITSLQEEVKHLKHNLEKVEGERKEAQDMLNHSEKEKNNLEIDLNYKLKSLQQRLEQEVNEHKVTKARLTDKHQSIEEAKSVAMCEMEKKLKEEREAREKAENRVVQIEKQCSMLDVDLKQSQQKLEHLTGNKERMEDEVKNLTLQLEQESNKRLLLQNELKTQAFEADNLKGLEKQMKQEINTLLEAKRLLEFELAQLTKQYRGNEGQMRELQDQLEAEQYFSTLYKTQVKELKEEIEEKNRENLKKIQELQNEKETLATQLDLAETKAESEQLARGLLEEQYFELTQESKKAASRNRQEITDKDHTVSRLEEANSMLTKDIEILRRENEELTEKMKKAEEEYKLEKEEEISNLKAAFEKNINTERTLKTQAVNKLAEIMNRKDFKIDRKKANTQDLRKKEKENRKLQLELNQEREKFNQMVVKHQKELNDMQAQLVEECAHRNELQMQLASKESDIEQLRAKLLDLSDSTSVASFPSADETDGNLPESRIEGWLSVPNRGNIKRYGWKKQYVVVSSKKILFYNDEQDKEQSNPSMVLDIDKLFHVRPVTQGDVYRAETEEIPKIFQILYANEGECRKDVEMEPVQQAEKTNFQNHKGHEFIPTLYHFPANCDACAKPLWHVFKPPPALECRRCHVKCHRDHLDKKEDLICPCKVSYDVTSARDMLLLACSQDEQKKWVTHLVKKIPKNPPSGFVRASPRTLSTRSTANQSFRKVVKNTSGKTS

Row | Structure (SMILES) | Ki (Rho kinase 1 (ROCK1)) [nM] | Ki (Rho kinase 2 (ROCK2)) [nM]
1 | Cc1c[nH]c2nccc(Oc3ccc([C@H]4CNC[C@@H]4C(=O)NCc4ccccc4)cc3)c12 (racemic) [Example 17, rac-(3R,4S)-N-benzyl-4-(4-((3-methyl-1H-pyrrolo[2,3-b]pyridin-4-yl)oxy)phenyl)pyrrolidine-3-carboxamide] | < 3 | < 3
2 | Cc1c[nH]c2nccc(Oc3ccc([C@H]4CNC[C@@H]4C(=O)N(C)Cc4ccccc4)cc3)c12 (racemic) [Example 18, rac-(3R,4S)-N-benzyl-N-methyl-4-(4-((3-methyl-1H-pyrrolo[2,3-b]pyridin-4-yl)oxy)phenyl)pyrrolidine-3-carboxamide] | 3 to 30 | < 3
3 | Cc1c[nH]c2nccc(Oc3ccc([C@H]4CCN[C@@H]4C(=O)NCc4ccccc4)cc3)c12 (racemic) [Example 19, rac-(2S,3R)-N-benzyl-3-(4-((3-methyl-1H-pyrrolo[2,3-b]pyridin-4-yl)oxy)phenyl)pyrrolidine-2-carboxamide] | < 3 | < 3
4 | Cc1c[nH]c2nccc(Oc3ccc([C@H]4CCN[C@@H]4C(=O)NCCc4ccncc4)cc3)c12 (racemic) [Example 20, rac-(2S,3R)-3-(4-((3-methyl-1H-pyrrolo[2,3-b]pyridin-4-yl)oxy)phenyl)-N-(2-(pyridin-4-yl)ethyl)pyrrolidine-2-carboxamide] | < 3 | < 3
5 | COCCCNC(=O)[C@H]1NCC[C@@H]1c1ccc(Oc2ccnc3[nH]cc(C)c23)cc1 (racemic) [Example 21, rac-(2S,3R)-N-(3-methoxypropyl)-3-(4-((3-methyl-1H-pyrrolo[2,3-b]pyridin-4-yl)oxy)phenyl)pyrrolidine-2-carboxamide] | 3 to 30 | < 3
6 | Cc1c[nH]c2nccc(Oc3ccc([C@H]4CCN[C@@H]4C(=O)NCCc4ccccc4)cc3)c12 (racemic) [Example 22, rac-(2S,3R)-3-(4-((3-methyl-1H-pyrrolo[2,3-b]pyridin-4-yl)oxy)phenyl)-N-phenethylpyrrolidine-2-carboxamide] | < 3 | < 3
7 | Cc1c[nH]c2nccc(Oc3ccc([C@H]4CCN[C@@H]4C(=O)NCCOc4ccccc4)cc3)c12 (racemic) [Example 23, rac-(2S,3R)-3-(4-((3-methyl-1H-pyrrolo[2,3-b]pyridin-4-yl)oxy)phenyl)-N-(2-phenoxyethyl)pyrrolidine-2-carboxamide] | < 3 | < 3
8 | Cc1c[nH]c2nccc(Oc3ccc([C@H]4CCN[C@@H]4C(=O)NC4CCOCC4)cc3)c12 (racemic) [Example 24, rac-(2S,3R)-3-(4-((3-methyl-1H-pyrrolo[2,3-b]pyridin-4-yl)oxy)phenyl)-N-(tetrahydro-2H-pyran-4-yl)pyrrolidine-2-carboxamide] | 3 to 30 | 3 to 30
9 | Cc1c[nH]c2nccc(Oc3ccc([C@H]4CCN[C@@H]4C(=O)NC4CCN(C)CC4)cc3)c12 (racemic) [Example 25, rac-(2S,3R)-3-(4-((3-methyl-1H-pyrrolo[2,3-b]pyridin-4-yl)oxy)phenyl)-N-(1-methylpiperidin-4-yl)pyrrolidine-2-carboxamide] | 3 to 30 | 3 to 30
10 | Cc1c[nH]c2nccc(Oc3ccc([C@H]4CCN[C@@H]4C(=O)NCCCN(C)C)cc3)c12 (racemic) [Example 26, rac-(2R,3S)-N-(3-(dimethylamino)propyl)-3-(4-((3-methyl-1H-pyrrolo[2,3-b]pyridin-4-yl)oxy)phenyl)pyrrolidine-2-carboxamide] | 3 to 30 | 3 to 30
11 | Cc1c[nH]c2nccc(Oc3ccc([C@@H]4CCN[C@H]4C(=O)N4CCNCC4)cc3)c12 (racemic) [Example 27, rac-((2S,3R)-3-(4-((3-methyl-1H-pyrrolo[2,3-b]pyridin-4-yl)oxy)phenyl)pyrrolidin-2-yl)(piperazin-1-yl)methanone] | 3 to 30 | 3 to 30
12 | Cc1c[nH]c2nccc(Oc3ccc([C@@H]4CN(C)C[C@H]4C(=O)NCc4ccccc4)cc3)c12 (racemic) [Example 50, rac-(3R,4S)-N-benzyl-1-methyl-4-(4-((3-methyl-1H-pyrrolo[2,3-b]pyridin-4-yl)oxy)phenyl)pyrrolidine-3-carboxamide] | 3 to 30 | < 3
13 | Cc1c[nH]c2nccc(Oc3ccc(CC(CN)C(=O)N4C[C@@H]5C[C@H]4CN5C)cc3F)c12 (single isomer, unassigned) [Example 4A] | 3 to 30 | 3 to 30
14 | Cc1c[nH]c2nccc(Oc3ccc(CC(CN)C(=O)N4C[C@@H]5C[C@H]4CN5C)cc3F)c12 (single isomer, unassigned) [Example 4B] | < 3 | < 3
15 | Cc1c[nH]c2nccc(Oc3ccc(CC(CN)C(=O)N4CCN(Cc5ccccn5)CC4)cc3F)c12 (single isomer, unassigned) [Example 5A, 3-amino-2-(3-fluoro-4-((3-methyl-1H-pyrrolo[2,3-b]pyridin-4-yl)oxy)benzyl)-1-(4-(pyridin-2-ylmethyl)piperazin-1-yl)propan-1-one] | 3 to 30 | 3 to 30
16 | Cc1c[nH]c2nccc(Oc3ccc(CC(CN)C(=O)N4CCN(Cc5ccccn5)CC4)cc3F)c12 (single isomer, unassigned) [Example 5B, 3-amino-2-(3-fluoro-4-((3-methyl-1H-pyrrolo[2,3-b]pyridin-4-yl)oxy)benzyl)-1-(4-(pyridin-2-ylmethyl)piperazin-1-yl)propan-1-one] | < 3 | < 3
17 | Cc1c[nH]c2nccc(Oc3ccc(C(N)CC(=O)N4CCN(Cc5ccccc5)CC4)cc3)c12 (single isomer, unassigned) [Example 7A, 3-amino-1-(4-benzylpiperazin-1-yl)-3-(4-((3-methyl-1H-pyrrolo[2,3-b]pyridin-4-yl)oxy)phenyl)propan-1-one] | < 3 | < 3
18 | Cc1c[nH]c2nccc(Oc3ccc(C(N)CC(=O)N4CCN(Cc5ccccc5)CC4)cc3)c12 (single isomer, unassigned) [Example 7B, 3-amino-1-(4-benzylpiperazin-1-yl)-3-(4-((3-methyl-1H-pyrrolo[2,3-b]pyridin-4-yl)oxy)phenyl)propan-1-one] | 3 to 30 | 3 to 30
19 | Cc1c[nH]c2nccc(Oc3ccc([C@H]4CNC[C@@H]4C(=O)NCc4ccccc4)cc3)c12 (single isomer, unassigned) [Example 17A] | < 3 | < 3
20 | Cc1c[nH]c2nccc(Oc3ccc([C@H]4CNC[C@@H]4C(=O)NCc4ccccc4)cc3)c12 (single isomer, unassigned) [Example 17B] | 3 to 30 | 3 to 30
21 | Cc1c[nH]c2nccc(Oc3ccc(CC(CN)C(=O)N4CCN(Cc5ccccc5)CC4)cc3F)c12 (single isomer, unassigned) [Example 29A, 3-amino-1-(4-benzylpiperazin-1-yl)-2-(3-fluoro-4-((3-methyl-1H-pyrrolo[2,3-b]pyridin-4-yl)oxy)benzyl)propan-l-one] | 3 to 30 | 3 to 30
22 | Cc1c[nH]c2nccc(Oc3ccc(CC(CN)C(=O)N4CCN(Cc5ccccc5)CC4)cc3F)c12 (single isomer, unassigned) [Example 29B, 3-amino-1-(4-benzylpiperazin-1-yl)-2-(3-fluoro-4-((3-methyl-1H-pyrrolo[2,3-b]pyridin-4-yl)oxy)benzyl)propan-1-one] | < 3 | < 3
23 | NCC(Cc1ccc(Oc2ccnc3[nH]ccc23)cc1)C(=O)N1CCN(Cc2ccccc2)CC1 (single isomer, unassigned) [Example 32A, 2-(4-((1H-pyrrolo[2,3-b]pyridin-4-yl)oxy)benzyl)-3-amino-1-(4-benzylpiperazin-1-yl)propan-1-one] | 3 to 30 | 3 to 30
24 | NCC(Cc1ccc(Oc2ccnc3[nH]ccc23)cc1)C(=O)N1CCN(Cc2ccccc2)CC1 (single isomer, unassigned) [Example 32B, 2-(4-((1H-pyrrolo[2,3-b]pyridin-4-yl)oxy)benzyl)-3-amino-1-(4-benzylpiperazin-1-yl)propan-1-one] | < 3 | < 3
25 | Cc1c[nH]c2nccc(Oc3ccc(CC(CN)C(=O)N4CCN(C)CC4)cc3)c12 (stereo not drawn) [Example 1, 3-amino-2-(4-((3-methyl-1H-pyrrolo[2,3-b]pyridin-4-yl)oxy)benzyl)-1-(4-methylpiperazin-1-yl)propan-1-one] | < 3 | < 3
26 | Cc1c[nH]c2nccc(Oc3ccc(CC(CN)C(=O)N4CCN(C5CC5)CC4)cc3)c12 (stereo not drawn) [Example 2, 3-amino-1-(4-cyclopropylpiperazin-1-yl)-2-(4-((3-methyl-1H-pyrrolo[2,3-b]pyridin-4-yl)oxy)benzyl)propan-1-one] | < 3 | < 3
27 | Cc1c[nH]c2nccc(Oc3ccc(CC(CN)C(=O)NC4CCN(C)CC4)cc3F)c12 (stereo not drawn) [Example 3, 3-amino-2-(3-fluoro-4-((3-methyl-1H-pyrrolo[2,3-b]pyridin-4-yl)oxy)benzyl)-N-(1-methylpiperidin-4-yl)propanamide] | < 3 | < 3
